Where “and” joins values, the source holds several entries; their conditions need not be identical. Equal values may be shown once. Numbers after ± are expanded uncertainties.
Conditions: Liquid, Vibrating tube method

Structure (SMILES): CCCCCCCC(=O)OCC(COC(=O)CCCCCCC)(COC(=O)CCCCCCC)COC(=O)CCCCCCC [pentaerythritol tetraoctanoate]
- mass density (303.14 K, 4098.2 kPa): 957.9 ± 1.2 kg/m3
- mass density (303.14 K, 4118.3 kPa): 957.9 ± 1.2 kg/m3
- mass density (303.14 K, 4135.4 kPa): 957.9 ± 1.2 kg/m3
- mass density (303.14 K, 4156 kPa): 957.9 ± 1.2 kg/m3
- mass density (303.14 K, 4172.8 kPa): 957.9 ± 1.2 kg/m3
- mass density (303.14 K, 4194.3 kPa): 958 ± 1.2 kg/m3
- mass density (303.14 K, 4211.9 kPa): 958 ± 1.2 kg/m3
- mass density (303.14 K, 4232.9 kPa): 958.1 ± 1.2 kg/m3
- mass density (303.14 K, 4250 kPa): 958 ± 1.2 kg/m3
- mass density (303.14 K, 4271.5 kPa): 958.1 ± 1.2 kg/m3
- mass density (303.14 K, 4289.7 kPa): 958 ± 1.2 kg/m3
- mass density (303.14 K, 4414.6 kPa): 958.1 ± 1.2 kg/m3
- mass density (303.14 K, 4495.8 kPa): 958.1 ± 1.2 kg/m3
- mass density (303.14 K, 4506.9 kPa): 958.2 ± 1.2 kg/m3
- mass density (303.14 K, 4516.1 kPa): 958.2 ± 1.2 kg/m3
- mass density (303.14 K, 4528.5 kPa): 958.3 ± 1.2 kg/m3
- mass density (303.14 K, 4565.1 kPa): 958.2 ± 1.2 kg/m3
- mass density (303.14 K, 4883.3 kPa): 958.4 ± 1.2 kg/m3
- mass density (303.14 K, 4909.3 kPa): 958.4 ± 1.2 kg/m3
- mass density (303.14 K, 4931.2 kPa): 958.5 ± 1.2 kg/m3
- mass density (303.14 K, 4958.7 kPa): 958.5 ± 1.2 kg/m3
- mass density (303.14 K, 5309.4 kPa): 958.7 ± 1.2 kg/m3
- mass density (303.14 K, 5618.4 kPa): 958.8 ± 1.2 kg/m3
- mass density (303.14 K, 5650.1 kPa): 958.8 ± 1.2 kg/m3
- mass density (303.14 K, 5689.5 kPa): 958.9 ± 1.2 kg/m3
- mass density (303.14 K, 5713.9 kPa): 959 ± 1.2 kg/m3
- mass density (303.14 K, 5742.8 kPa): 959 ± 1.2 kg/m3
- mass density (303.14 K, 6420.5 kPa): 959.2 ± 1.2 kg/m3
- mass density (303.14 K, 6514.5 kPa): 959.4 ± 1.2 kg/m3
- mass density (303.14 K, 6535.9 kPa): 959.5 ± 1.2 kg/m3
- mass density (303.14 K, 6561.5 kPa): 959.4 ± 1.2 kg/m3
- mass density (303.14 K, 6885.2 kPa): 959.7 ± 1.2 kg/m3
- mass density (303.14 K, 6937.5 kPa): 959.7 ± 1.2 kg/m3
- mass density (303.14 K, 6965.9 kPa): 959.7 ± 1.2 kg/m3
- mass density (303.14 K, 6989.7 kPa): 959.7 ± 1.2 kg/m3
- mass density (303.14 K, 7018.5 kPa): 959.7 ± 1.2 kg/m3
- mass density (303.14 K, 7042.7 kPa): 959.8 ± 1.2 kg/m3
- mass density (303.14 K, 7072.4 kPa): 959.8 ± 1.2 kg/m3
- mass density (303.14 K, 7331.7 kPa): 960 ± 1.2 kg/m3
- mass density (303.14 K, 7358.2 kPa): 959.8 ± 1.2 kg/m3
- mass density (303.14 K, 7974.8 kPa): 960.4 ± 1.2 kg/m3
- mass density (303.14 K, 8046.4 kPa): 960.3 ± 1.2 kg/m3
- mass density (303.14 K, 8085.7 kPa): 960.5 ± 1.2 kg/m3
- mass density (303.14 K, 8120 kPa): 960.5 ± 1.2 kg/m3
- mass density (303.14 K, 8830.9 kPa): 960.7 ± 1.2 kg/m3
- mass density (303.14 K, 9313 kPa): 961.2 ± 1.2 kg/m3
- mass density (303.14 K, 9339.7 kPa): 961.2 ± 1.2 kg/m3
- mass density (303.14 K, 11022 kPa): 962.1 ± 1.2 kg/m3
- mass density (303.14 K, 11048 kPa): 962.2 ± 1.2 kg/m3
- mass density (303.14 K, 13652 kPa): 963.7 ± 1.2 kg/m3
- mass density (303.14 K, 13735 kPa): 963.7 ± 1.2 kg/m3
- mass density (303.14 K, 13777 kPa): 963.7 ± 1.2 kg/m3
- mass density (303.14 K, 13855 kPa): 963.8 ± 1.2 kg/m3
- mass density (303.14 K, 13898 kPa): 963.8 ± 1.2 kg/m3
- mass density (303.14 K, 14022 kPa): 964 ± 1.2 kg/m3
- mass density (303.15 K, 104.6 kPa): 955.3 ± 1.2 kg/m3 and 955.4 ± 1.2 kg/m3
- mass density (303.15 K, 104.7 kPa): 955.5 ± 1.2 kg/m3 and 955.4 ± 1.2 kg/m3
- mass density (303.15 K, 104.9 kPa): 955.4 ± 1.2 kg/m3
- mass density (303.15 K, 105.1 kPa): 955.4 ± 1.2 kg/m3
- mass density (303.15 K, 106.7 kPa): 955.3 ± 1.2 kg/m3
- mass density (303.15 K, 113.4 kPa): 955.5 ± 1.2 kg/m3
- mass density (303.15 K, 119.7 kPa): 955.5 ± 1.2 kg/m3
- mass density (303.15 K, 123.3 kPa): 955.5 ± 1.2 kg/m3
- mass density (303.15 K, 127.9 kPa): 955.5 ± 1.2 kg/m3
- mass density (303.15 K, 133.8 kPa): 955.5 ± 1.2 kg/m3
- mass density (303.15 K, 141.4 kPa): 955.5 ± 1.2 kg/m3
- mass density (303.15 K, 151 kPa): 955.4 ± 1.2 kg/m3
- mass density (303.15 K, 163.8 kPa): 955.4 ± 1.2 kg/m3
- mass density (303.15 K, 180.7 kPa): 955.5 ± 1.2 kg/m3
- mass density (303.15 K, 203.5 kPa): 955.6 ± 1.2 kg/m3
- mass density (303.15 K, 234.4 kPa): 955.6 ± 1.2 kg/m3
- mass density (303.15 K, 272.8 kPa): 955.5 ± 1.2 kg/m3
- mass density (303.15 K, 306.2 kPa): 955.6 ± 1.2 kg/m3
- mass density (303.15 K, 333.5 kPa): 955.7 ± 1.2 kg/m3
- mass density (303.15 K, 351.9 kPa): 955.6 ± 1.2 kg/m3
- mass density (303.15 K, 363.2 kPa): 955.6 ± 1.2 kg/m3
- mass density (303.15 K, 377.9 kPa): 955.7 ± 1.2 kg/m3
- mass density (303.15 K, 393.4 kPa): 955.6 ± 1.2 kg/m3
- mass density (303.15 K, 410.1 kPa): 955.7 ± 1.2 kg/m3
- mass density (303.15 K, 427 kPa): 955.6 ± 1.2 kg/m3
- mass density (303.15 K, 438.6 kPa): 955.6 ± 1.2 kg/m3
- mass density (303.15 K, 450.2 kPa): 955.6 ± 1.2 kg/m3
- mass density (303.15 K, 462.7 kPa): 955.6 ± 1.2 kg/m3
- mass density (303.15 K, 474.7 kPa): 955.6 ± 1.2 kg/m3
- mass density (303.15 K, 487.9 kPa): 955.7 ± 1.2 kg/m3
- mass density (303.15 K, 499.6 kPa): 955.6 ± 1.2 kg/m3
- mass density (303.15 K, 514.7 kPa): 955.8 ± 1.2 kg/m3
- mass density (303.15 K, 529.5 kPa): 955.5 ± 1.2 kg/m3
- mass density (303.15 K, 545.8 kPa): 955.7 ± 1.2 kg/m3
- mass density (303.15 K, 562.8 kPa): 955.6 ± 1.2 kg/m3
- mass density (303.15 K, 580.7 kPa): 955.7 ± 1.2 kg/m3
- mass density (303.15 K, 600.2 kPa): 955.7 ± 1.2 kg/m3
- mass density (303.15 K, 620 kPa): 955.7 ± 1.2 kg/m3
- mass density (303.15 K, 635.4 kPa): 955.8 ± 1.2 kg/m3
- mass density (303.15 K, 653.7 kPa): 955.7 ± 1.2 kg/m3
- mass density (303.15 K, 673.1 kPa): 955.8 ± 1.2 kg/m3
- mass density (303.15 K, 690.2 kPa): 955.8 ± 1.2 kg/m3
- mass density (303.15 K, 711.7 kPa): 955.8 ± 1.2 kg/m3
- mass density (303.15 K, 734 kPa): 955.8 ± 1.2 kg/m3
- mass density (303.15 K, 753.9 kPa): 955.8 ± 1.2 kg/m3
- mass density (303.15 K, 778.9 kPa): 955.8 ± 1.2 kg/m3
- mass density (303.15 K, 805.3 kPa): 955.7 ± 1.2 kg/m3
- mass density (303.15 K, 828.4 kPa): 956 ± 1.2 kg/m3
- mass density (303.15 K, 856.4 kPa): 956 ± 1.2 kg/m3
- mass density (303.15 K, 878.8 kPa): 956 ± 1.2 kg/m3
- mass density (303.15 K, 896.7 kPa): 955.9 ± 1.2 kg/m3
- mass density (303.15 K, 918.8 kPa): 955.9 ± 1.2 kg/m3
- mass density (303.15 K, 937.7 kPa): 955.8 ± 1.2 kg/m3
- mass density (303.15 K, 961.3 kPa): 955.9 ± 1.2 kg/m3
- mass density (303.15 K, 986.7 kPa): 956 ± 1.2 kg/m3
- mass density (303.15 K, 1012 kPa): 956 ± 1.2 kg/m3
- mass density (303.15 K, 1034.8 kPa): 956.1 ± 1.2 kg/m3
- mass density (303.15 K, 1062.9 kPa): 956 ± 1.2 kg/m3
- mass density (303.15 K, 1087.6 kPa): 956.1 ± 1.2 kg/m3
- mass density (303.15 K, 1118 kPa): 956.1 ± 1.2 kg/m3
- mass density (303.15 K, 1149.9 kPa): 956 ± 1.2 kg/m3
- mass density (303.15 K, 1183.3 kPa): 956 ± 1.2 kg/m3
- mass density (303.15 K, 1212.4 kPa): 956.1 ± 1.2 kg/m3
- mass density (303.15 K, 1248.7 kPa): 956.1 ± 1.2 kg/m3
- mass density (303.15 K, 1287.1 kPa): 956.2 ± 1.2 kg/m3
- mass density (303.15 K, 1320.4 kPa): 956.1 ± 1.2 kg/m3
- mass density (303.15 K, 1362.3 kPa): 956.1 ± 1.2 kg/m3
- mass density (303.15 K, 1407.7 kPa): 956.3 ± 1.2 kg/m3
- mass density (303.15 K, 1447.7 kPa): 956.2 ± 1.2 kg/m3
- mass density (303.15 K, 1500.9 kPa): 956.2 ± 1.2 kg/m3
- mass density (303.15 K, 1544.9 kPa): 956.4 ± 1.2 kg/m3
- mass density (303.15 K, 1600.2 kPa): 956.4 ± 1.2 kg/m3
- mass density (303.15 K, 1657.7 kPa): 956.3 ± 1.2 kg/m3
- mass density (303.15 K, 1716.5 kPa): 956.4 ± 1.2 kg/m3
- mass density (303.15 K, 1763.5 kPa): 956.4 ± 1.2 kg/m3
- mass density (303.15 K, 1789.9 kPa): 956.6 ± 1.2 kg/m3
- mass density (303.15 K, 1809.7 kPa): 956.6 ± 1.2 kg/m3
- mass density (303.15 K, 1826.2 kPa): 956.5 ± 1.2 kg/m3
- mass density (303.15 K, 1847 kPa): 956.6 ± 1.2 kg/m3
- mass density (303.15 K, 1864.2 kPa): 956.5 ± 1.2 kg/m3
- mass density (303.15 K, 1884.7 kPa): 956.4 ± 1.2 kg/m3
- mass density (303.15 K, 1906.9 kPa): 956.5 ± 1.2 kg/m3
- mass density (303.15 K, 1925.8 kPa): 956.5 ± 1.2 kg/m3
- mass density (303.15 K, 1948 kPa): 956.5 ± 1.2 kg/m3
- mass density (303.15 K, 1967.5 kPa): 956.7 ± 1.2 kg/m3
- mass density (303.15 K, 1990.5 kPa): 956.6 ± 1.2 kg/m3
- mass density (303.15 K, 2013.8 kPa): 956.6 ± 1.2 kg/m3
- mass density (303.15 K, 2034.1 kPa): 956.6 ± 1.2 kg/m3
- mass density (303.15 K, 2058.5 kPa): 956.7 ± 1.2 kg/m3
- mass density (303.15 K, 2083.2 kPa): 956.6 ± 1.2 kg/m3
- mass density (303.15 K, 2104.7 kPa): 956.6 ± 1.2 kg/m3
- mass density (303.15 K, 2130.4 kPa): 956.7 ± 1.2 kg/m3

Reference: the NIST ThermoML archive (doi:10.1021/je060271a)
